Values joined by “and” are separate entries in the source; they are usually repeats but may differ in a detail not shown here. Identical values can stand only once.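 Test compounds were applied to cells in 96-well plates for 48 hours at 5 doses. Here, GI50 denotes the concentration required for 50% inhibition of growth. TGI: concentration producing complete growth inhibition.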
What was measured:
Assay in all cases: DTP human tumour cell line panel, 48 h
A498 renal = tested on: A498 renal
ACHN renal = tested on: ACHN renal
COLO 205 colon = tested on: COLO 205 colon
EKVX NSCLC = tested on: EKVX NSCLC
MOLT-4 leukemia = tested on: MOLT-4 leukemia
SK-MEL-2 melanoma = tested on: SK-MEL-2 melanoma
SNB-19 CNS = tested on: SNB-19 CNS
SNB-75 CNS = tested on: SNB-75 CNS
U251 CNS = tested on: U251 CNS
UO-31 renal = tested on: UO-31 renal

Row | Compound | GI50 (A498 renal) | TGI (ACHN renal) [µM] | TGI (COLO 205 colon) | GI50 (EKVX NSCLC) [µM] | TGI (EKVX NSCLC) | GI50 (MOLT-4 leukemia) [µM] | TGI (MOLT-4 leukemia) | GI50 (SK-MEL-2 melanoma) [µM] | TGI (SK-MEL-2 melanoma) | GI50 (SNB-19 CNS) | TGI (SNB-19 CNS) [µM] | GI50 (SNB-75 CNS) [µM] | TGI (SNB-75 CNS) | GI50 (U251 CNS) [µM] | TGI (U251 CNS) | GI50 (UO-31 renal) [µM] | TGI (UO-31 renal) | TGI (A498 renal) [µM]
1 | COc1ccc(/C=C\c2cc(OC)c(OC)c(OC)c2)c(O)c1O | 0.247 µM and 0.05 µM | 57.7 | 30.1 µM and 90.2 µM | 3.76 | 70.1 µM and 96.1 µM | 0.456 | 20.8 µM and 3.4 µM | 0.0705 | 33.3 µM and 7.62 µM | 0.0517 µM and 0.05 µM | 85.3 | 2.36 | 20.7 µM and 48.2 µM | 0.0933 | 18.7 µM and 6.09 µM | 6.76 | 33.7 µM and > 77.8 µM | –
2 | CC(O)CN1c2ccccc2Sc2ccc(Cl)cc21 (configuration not stated) | – | > 10 | > 10 µM | – | > 10 µM | – | > 10 µM | – | > 10 µM | – | > 10 | – | > 10 µM | – | > 10 µM | – | > 10 µM | > 10

From PubChem BioAssay (NCI)
